According to paper PMC6795878, “Pentagamavunon-1 (PGV-1) inhibits ROS metabolic enzymes and suppresses tumor cell growth by inducing M phase (prometaphase) arrest and cell senescence” (Scientific Reports, 2019):

Biological target: T1, GST-P1 (Homo sapiens, UniProt P09211)
T1 construct: gene GSTP1; 6xHis-tagged GST-P1 recombinant protein
Test: GSH-CDNB conjugation assay with purified recombinant enzyme; also PGV-1 bead pulldown competed by glutathione
Format: biochemical

T1 sequence (P09211 2-210): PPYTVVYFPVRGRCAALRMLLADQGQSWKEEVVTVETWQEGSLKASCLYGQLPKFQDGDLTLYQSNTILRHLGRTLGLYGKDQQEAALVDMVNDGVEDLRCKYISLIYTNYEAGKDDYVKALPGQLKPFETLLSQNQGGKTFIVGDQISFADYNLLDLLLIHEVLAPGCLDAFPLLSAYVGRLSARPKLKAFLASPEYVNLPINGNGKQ

IC50: 97.6 ± 3.8 µM
SMILES: Cc1cc(/C=C2\CC/C(=C\c3cc(C)c(O)c(C)c3)C2=O)cc(C)c1O [PGV-1]
